Laboratory results as given in publication PMC8037418, “Outlining In Vitro and In Silico Cholinesterase Inhibitory Activity of Twenty-Four Natural Products of Various Chemical Classes: Smilagenin, Kokusaginine, and Methyl Rosmarinate as Emboldening Inhibitors” (Molecules, 2021).
Converted amounts (≈) assume the structure as drawn. Like-named read-outs stand apart in the source and are kept apart here.

Tests used:
AChE [1] = molecular target: T1, AChE (Homo sapiens, UniProt P22303); assay: biochemical; settings: for inhibition at 100 µg/mL: read-out: ChE Inhibition (Inhibition % ± S.D. at 100 µg/mL) AChE
Protocol: (§1) Inhibition of AChE and BChE was determined by Ellman’s method with slight modifications. To the reaction mixture, 140 µL of […] sodium phosphate buffer (pH 8), 20 µL of DTNB, 20 µL of enzyme (either AChE or BChE) and 20 µL of the samples to be tested was added later incubated for 15 min at 25 °C. About 10 µL of […] or butyrylthiocholine chloride which act as substrates to react with DTNB forming 5-thio-2-nitrobenzoate anion, that formed a yellow-colored complex, was added into the incubated sample. The absorbance is measured at 417 nm using a 96-well ELISA microplate reader (VersaMax, Molecular Devices, San Jose, CA, USA) Galanthamine was used the reference drug.
(§2) The measurements and calculations were evaluated by using Softmax PRO 4.3.2.LS software. Percentage of inhibition of AChE/BChE/TYR was determined by comparison of rates of reaction of test samples relative to blank samples. Extent of the enzymatic reaction was calculated based on the following equation: I% = (C-T)/C × 100, where I% is the activity of the enzyme as percent inhibition. E value expresses the effect of the test sample or the positive control on AChE/BChE/TYR enzyme activity articulated as the percentage of the remaining activity in the presence of test sample or positive control. C value is the absorbance of the control solvent (blank) in the presence of enzyme, where T is the absorbance of the tested sample (plant extract or positive control in the solvent) in the presence of enzyme.

BChE [2] = molecular target: T2, BChE (Homo sapiens, UniProt P06276); assay: Microtiter (Ellman) assay for BChE inhibition; format: biochemical; settings: for inhibition at 100 µg/mL: read-out: ChE Inhibition (Inhibition % ± S.D. at 100 µg/mL) BChE
Protocol: as §1, §2

AChE [3] = molecular target: T1, AChE; settings: cited from earlier work
BChE [4] = molecular target: T2, BChE; settings: cited from earlier work
[5] = test system: AChE of electric eel origin; settings: cited from earlier work
[6] = at 100 µg/mL, n: 3, '-' = No inhibition
[7] = at 100 μg/mL, from Verbascum xanthophoeniceum and V. mucronatum

T2 sequence (P06276 29-602): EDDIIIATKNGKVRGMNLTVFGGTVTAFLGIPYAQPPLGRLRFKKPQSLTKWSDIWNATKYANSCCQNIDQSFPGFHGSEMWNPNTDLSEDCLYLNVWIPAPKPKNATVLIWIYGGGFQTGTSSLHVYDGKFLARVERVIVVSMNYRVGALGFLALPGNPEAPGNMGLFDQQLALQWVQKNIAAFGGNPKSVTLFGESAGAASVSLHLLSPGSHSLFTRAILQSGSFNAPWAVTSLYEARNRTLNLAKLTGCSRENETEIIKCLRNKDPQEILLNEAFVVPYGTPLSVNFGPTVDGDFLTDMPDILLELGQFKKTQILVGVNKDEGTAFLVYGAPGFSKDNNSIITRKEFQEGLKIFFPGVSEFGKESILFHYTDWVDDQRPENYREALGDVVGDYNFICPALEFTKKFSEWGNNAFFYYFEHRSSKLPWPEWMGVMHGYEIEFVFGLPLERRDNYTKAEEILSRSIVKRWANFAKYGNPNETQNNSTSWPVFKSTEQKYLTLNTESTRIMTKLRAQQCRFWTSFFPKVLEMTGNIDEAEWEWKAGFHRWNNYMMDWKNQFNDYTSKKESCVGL
T1 sequence (P22303 32-614): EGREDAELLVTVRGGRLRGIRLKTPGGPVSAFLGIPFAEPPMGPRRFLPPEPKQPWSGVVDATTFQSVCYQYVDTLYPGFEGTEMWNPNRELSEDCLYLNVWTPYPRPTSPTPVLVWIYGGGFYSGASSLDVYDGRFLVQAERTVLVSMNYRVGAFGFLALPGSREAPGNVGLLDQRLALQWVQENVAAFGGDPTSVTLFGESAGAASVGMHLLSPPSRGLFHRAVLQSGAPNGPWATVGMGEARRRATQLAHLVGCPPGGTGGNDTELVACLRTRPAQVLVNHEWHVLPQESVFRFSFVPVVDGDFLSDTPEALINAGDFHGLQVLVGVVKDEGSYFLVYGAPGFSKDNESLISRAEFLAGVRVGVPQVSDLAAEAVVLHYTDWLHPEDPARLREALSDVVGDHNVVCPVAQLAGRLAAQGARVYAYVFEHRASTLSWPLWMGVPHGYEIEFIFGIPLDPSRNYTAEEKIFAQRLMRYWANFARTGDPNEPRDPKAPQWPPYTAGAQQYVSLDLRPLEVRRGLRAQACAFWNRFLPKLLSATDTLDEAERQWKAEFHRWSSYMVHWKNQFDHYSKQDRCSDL

| Compound | inhibition at 100 µg/mL (AChE [1]; [6]) | inhibition at 100 µg/mL (BChE [2]) | also measured |
| --- | --- | --- | --- |
| COC(=O)[C@@H](Cc1ccc(O)c(O)c1)OC(=O)/C=C/c1ccc(O)c(O)c1 [Methyl rosmarinate] | 16.8 ± 3.84% | – | IC50 (BChE [2]): 111 µM; inhibition at 100 µg/mL (BChE [2]; [6]): 82.74 ± 0.62% |
| C[C@@H]1CC[C@@]2(OC1)O[C@H]1C[C@H]3[C@@H]4CC[C@@H]5C[C@@H](O)CC[C@]5(C)[C@H]4CC[C@]3(C)[C@H]1[C@@H]2C [Smilagenin] | 62.4 ± 2.44% | 15 ± 3.01% | IC50 (AChE [1]): 104 µM; IC50 (AChE [3]; read-out: IC50 AChE, compound isolated from Asparagus racemosus): 9.9 µM; IC50 (BChE [4]; compound isolated from Asparagus racemosus): 5.4 µM |
| COC(=O)C1=COC(OC2OC(CO)C(O)C(O)C2O)C2C(C)(O)CCC12O (stereo not drawn) [Ipolamide] | < 0% | – | inhibition at 100 µg/mL (BChE [2]; [6]): 12.4 ± 2.28% |
| Forsythoside B | – | – | ChE Inhibition (Inhibition % ± S.D. at 100 µg/mL) BChE (BChE [2]; [6]): 14.80 ± 2.31%; AChE inhibition (AChE [3]; Calceolaria talcana study): no AChE inhibition |
| tannic acid [reference compound] | – | – | IC50 AChE [5]: 0.10 µg/mL |
| CC(CCC(O)C(C)(C)O)C1C(O)CC2(C)C3CC(OC4OC(CO)C(O)C(O)C4O)C4C(C)(C)C(OC5OCC(O)C(O)C5OC5OC(CO)C(O)C(O)C5O)CCC45CC35CCC12C (stereo not drawn) [Cyclocanthoside G] | 6.85 ± 0.72% | 8.23 ± 0.24% | – |
| C[C@@H]1O[C@@H](O[C@@H]2[C@@H](O)[C@H](OCCc3ccc(O)c(O)c3)O[C@H](CO)[C@H]2OC(=O)/C=C/c2ccc(O)c(O)c2)[C@H](O)[C@H](O)[C@H]1O [Verbascoside] | 8.12 ± 1.49% | 22.2 ± 2.54% | IC50 (AChE [3]; Calceolaria talcana study, read-out: IC50 AChE (converted)): 304 µM; AChE inhibition (AChE [3]; at 100 μg/mL, from Pseuderanthemum carruthersii): < 50%; ChE inhibition (AChE) (AChE [3]; [7]): below 30%; inhibition against AChE (AChE [3]; isolated from Olea europea L.): no inhibition; IC50 (BChE [4]; Calceolaria talcana study): 170 µM; ChE inhibition (BChE) (BChE [4]; [7]): below 30%; inhibition against BChE (BChE [4]; isolated from Olea europea L.): no inhibition |
| CC(CCC(OC1OCC(O)C(O)C1O)C(C)(C)O)C1CCC2(C)C3C(O)CC4C(C)(C)C(OC5OC(C)C(O)C(O)C5O)CC(O)C45CC35CCC12C (stereo not drawn) [Macrophyllosaponin B] | 13.2 ± 0.92% | 12.2 ± 1.16% | – |
| CC1CCC2(OC1)OC1CC3C4CCC5CC(O)CCC5(C)C4CC(O)C3(C)C1C2C (stereo not drawn) [Rockogenin] | – | 15.2 ± 2.56% | inhibition at 100 µg/mL (AChE [1]): 5.29 ± 0.52% |
| CC(CCC(O)C(C)(C)OC1OCC(O)C(O)C1O)C1CCC2(C)C3C(O)CC4C(C)(C)C(OC5OC(C)C(O)C(O)C5O)CC(O)C45CC35CCC12C (stereo not drawn) [Macrophyllosaponin C] | 12.4 ± 1.4% | 16.5 ± 1.57% | – |
| CC(CCC(O)C(C)(C)O)C1C(O)CC2(C)C3CC(OC4OC(CO)C(O)C(O)C4O)C4C(C)(C)C(OC5OCC(O)C(O)C5O)CCC45CC35CCC12C (stereo not drawn) [Cyclocanthoside E] | 2.18 ± 1.81% | 5.35 ± 1.82% | – |
| CC(=O)OC1C(OC(CCC(C)C2CCC3(C)C4C(O)CC5C(C)(C)C(OC6OC(C)C(O)C(O)C6O)CC(O)C56CC46CCC23C)C(C)(C)O)OCC(O)C1O (stereo not drawn) [Macrophyllosaponin A] | 9.69 ± 0.85% | 12.2 ± 1.83% | – |
| COc1ccc2c3c1O[C@H]1C[C@@H](O)C=C[C@@]31CCN(C)C2 [Galanthamine HBr, reference compound] | – | 60.3 ± 1.36% | – |
| C[C@@H]1CC[C@@]2(OC1)O[C@H]1C[C@H]3[C@@H]4CC[C@H]5C[C@@H](O)CC[C@]5(C)[C@H]4CC(=O)[C@]3(C)[C@H]1[C@@H]2C [Hecogenin] | 25% | 17.3 ± 1.84% | ChE Inhibition (Inhibition % ± S.D. at 100 µg/mL) AChE (AChE [1]; [6]): 25.36 ± 1.11% |
| C[C@@H]1CC[C@@]2(OC1)O[C@H]1C[C@H]3[C@@H]4CC[C@H]5C[C@@H](O)CC[C@]5(C)[C@H]4CC[C@]3(C)[C@H]1[C@@H]2C [Tigogenin] | 17% | 22.2 ± 3.09% | ChE Inhibition (Inhibition % ± S.D. at 100 µg/mL) AChE (AChE [1]; [6]): 17.09 ± 0.69% |
| COc1cc(C=CC(=O)OC2C(COC3OCC(O)(CO)C3O)OC(OCCc3ccc(O)c(O)c3)C(O)C2OC2OC(C)C(O)C(O)C2O)ccc1O (stereo not drawn) [Alyssonoside] | < 0% | – | inhibition at 100 µg/mL (BChE [2]; [6]): 13 ± 2.07% |
| C[C@@H]1CC[C@@]2(OC1)O[C@H]1C[C@H]3[C@@H]4CC=C5C[C@@H](O)CC[C@]5(C)[C@H]4CC[C@]3(C)[C@H]1[C@@H]2C [Diosgenin] | 4.31 ± 0.37% | 8.12 ± 2.64% | IC50 AChE [5]: 103.60 µg/mL (≈ 250 µM) |
| CC(=O)OC1C(O)COC(OC2CCC34CC35CCC3(C)C(C6(C)CCC(C(C)(C)O)O6)C(O)CC3(C)C5CC(OC3OCC(O)C(O)C3O)C4C2(C)C)C1OC(C)=O (stereo not drawn) [Astrasieversianin II] | 8.01 ± 0.48% | 13.6 ± 1.79% | – |
| COC(=O)C1=COC(OC2OC(CO)C(O)C(O)C2O)C2C1(O)CC(O)C2(C)O (stereo not drawn) [Lamiide] | < 0% | – | inhibition at 100 µg/mL (BChE [2]; [6]): 8.77 ± 0.92% |
| CC(C)(O)C1CCC(C)(C2C(O)CC3(C)C4CC(OC5OCC(O)C(O)C5O)C5C(C)(C)C(OC6OCC(O)C(O)C6O)CCC56CC46CCC23C)O1 (stereo not drawn) [Astrasieversianin X] | 8.6 ± 0.91% | 10.1 ± 2.34% | – |
| CC(C)(O)[C@@H]1CC[C@](C)([C@H]2[C@@H](O)C[C@@]3(C)[C@@H]4C[C@H](O[C@@H]5O[C@H](CO)[C@@H](O)[C@H](O)[C@H]5O)[C@H]5C(C)(C)[C@@H](O[C@@H]6OC[C@@H](O)[C@H](O)[C@H]6O)CC[C@@]56C[C@@]46CC[C@]23C)O1 [Astragaloside IV] | 4.8 ± 0.05% | 6.62 ± 2.72% | – |
| CC(CCC(OC1OCC(O)C(O)C1OC1OCC(O)C(O)C1O)C(C)(C)O)C1CCC2(C)C3C(O)CC4C(C)(C)C(OC5OC(C)C(O)C(O)C5O)CC(O)C45CC35CCC12C (stereo not drawn) [Macrophyllosaponin D] | 4.31 ± 1.32% | 10.1 ± 0.78% | – |
| CC(C)(O)[C@@H]1CC[C@](C)([C@H]2[C@@H](O)C[C@@]3(C)[C@@H]4C[C@H](O[C@@H]5O[C@H](CO)[C@@H](O)[C@H](O)[C@H]5O)[C@H]5C(C)(C)[C@@H](O[C@@H]6OC[C@@H](O)[C@H](O)[C@H]6O[C@@H]6O[C@H](CO)[C@@H](O)[C@H](O)[C@H]6O)CC[C@@]56C[C@@]46CC[C@]23C)O1 [Astragaloside VI] | 6.23 ± 2.82% | 7.72 ± 0.53% | – |
| CC(=O)OC1C(O)COC(OC2CCC34CC35CCC3(C)C(C6(C)CCC(C(C)(C)O)O6)C(O)CC3(C)C5CC(OC3OC(CO)C(O)C(O)C3O)C4C2(C)C)C1OC(C)=O (stereo not drawn) [Astragaloside I] | < 0% | 8.38 ± 1.28% | – |
| O=C(O)C1OC(Oc2cc(O)c3c(=O)cc(-c4ccc(O)c(O)c4)oc3c2)C(O)C(O)C1O (stereo not drawn) [Luteolin-7-O-glucuronide] | < 0% | < 0% | – |
| COc1cc2nc3occc3c(OC)c2cc1OC [Kokusaginine] | 62.4 ± 3.2% | – | IC50 (AChE [1]): 271 µM; IC50 (BChE [2]): 237 µM; inhibition at 100 µg/mL (BChE [2]; [6]): 67.4 ± 3.1% |
